{"source": "patent US10335503B2", "about": "“Compound that specifically binds to AMPA receptor” (Public University Corporation Yokohama City University, priority 2015, dated 2019)", "details_in_all_cases": "Positive substance, concentration not given", "key": {"[1]": {"target": "Melatonin MT1 (Homo sapiens, UniProt P48039)", "sequence (P48039 whole entry)": "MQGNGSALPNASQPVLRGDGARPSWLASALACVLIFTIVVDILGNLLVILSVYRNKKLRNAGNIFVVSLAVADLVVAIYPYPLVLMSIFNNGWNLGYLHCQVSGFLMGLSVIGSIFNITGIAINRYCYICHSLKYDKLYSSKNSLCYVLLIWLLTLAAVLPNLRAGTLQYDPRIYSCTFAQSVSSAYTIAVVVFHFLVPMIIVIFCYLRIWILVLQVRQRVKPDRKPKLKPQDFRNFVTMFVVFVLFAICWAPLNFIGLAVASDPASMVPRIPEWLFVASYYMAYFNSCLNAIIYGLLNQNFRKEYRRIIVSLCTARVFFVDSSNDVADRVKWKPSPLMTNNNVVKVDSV", "test": "Receptor binding panel: Melatonin MT1"}, "[2]": {"target": "Neurokinin NK1 (Homo sapiens, UniProt P25103)", "test": "Receptor binding panel: Neurokinin NK1"}, "[3]": {"target": "Dopamine D2 short (Homo sapiens, UniProt P14416)", "test": "Receptor binding panel: Dopamine D2 short"}, "[4]": {"target": "Sigma σ1 (Homo sapiens, UniProt Q99720)", "sequence (Q99720 whole entry)": "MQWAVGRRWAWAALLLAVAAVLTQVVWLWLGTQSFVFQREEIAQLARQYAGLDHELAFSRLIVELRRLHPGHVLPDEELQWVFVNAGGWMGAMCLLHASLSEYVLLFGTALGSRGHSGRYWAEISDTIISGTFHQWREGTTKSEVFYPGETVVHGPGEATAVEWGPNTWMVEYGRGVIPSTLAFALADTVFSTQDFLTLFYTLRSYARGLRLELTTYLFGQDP", "test": "Receptor binding panel: Sigma σ1"}, "[5]": {"tested_on": "Glutamate (NMDA phencyclidine site)", "test": "Receptor binding panel: Glutamate (NMDA phencyclidine site)"}, "[6]": {"target": "Sigma σ2 (Homo sapiens, UniProt Q5BJF2)", "sequence (Q5BJF2 whole entry)": "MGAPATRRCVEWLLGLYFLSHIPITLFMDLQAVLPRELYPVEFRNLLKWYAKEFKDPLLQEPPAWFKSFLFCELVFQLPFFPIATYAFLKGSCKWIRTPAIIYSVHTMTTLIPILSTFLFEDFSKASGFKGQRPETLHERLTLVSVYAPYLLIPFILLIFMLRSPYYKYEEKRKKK", "test": "Receptor binding panel: Sigma σ2"}, "[7]": {"tested_on": "Glutamate (NMDA agonist site)", "test": "Receptor binding panel: Glutamate (NMDA agonist site)"}, "[8]": {"target": "Serotonin transporter (Homo sapiens, UniProt P31645)", "sequence (P31645 whole entry)": "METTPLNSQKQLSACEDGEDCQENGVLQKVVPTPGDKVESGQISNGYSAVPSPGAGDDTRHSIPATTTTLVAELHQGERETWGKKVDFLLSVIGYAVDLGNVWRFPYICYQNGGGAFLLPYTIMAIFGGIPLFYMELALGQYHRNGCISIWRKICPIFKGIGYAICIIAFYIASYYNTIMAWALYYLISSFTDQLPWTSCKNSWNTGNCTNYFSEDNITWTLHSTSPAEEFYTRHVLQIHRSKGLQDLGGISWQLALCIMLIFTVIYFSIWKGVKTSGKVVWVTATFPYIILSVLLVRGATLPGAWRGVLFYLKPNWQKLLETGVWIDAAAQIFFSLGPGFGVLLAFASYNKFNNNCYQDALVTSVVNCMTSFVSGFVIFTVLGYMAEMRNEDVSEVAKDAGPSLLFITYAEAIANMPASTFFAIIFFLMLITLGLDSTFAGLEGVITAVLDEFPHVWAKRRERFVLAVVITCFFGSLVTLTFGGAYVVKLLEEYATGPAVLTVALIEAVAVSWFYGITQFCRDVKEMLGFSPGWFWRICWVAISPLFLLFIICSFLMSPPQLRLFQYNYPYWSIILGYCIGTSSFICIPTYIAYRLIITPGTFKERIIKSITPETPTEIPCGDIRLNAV", "test": "Receptor binding panel: Serotonin transporter"}, "[9]": {"tested_on": "Glutamate (NMDA glycine site)", "test": "Receptor binding panel: Glutamate (NMDA glycine site)"}, "[10]": {"target": "Neurokinin NK3 (Homo sapiens, UniProt P29371)", "sequence (P29371 whole entry)": "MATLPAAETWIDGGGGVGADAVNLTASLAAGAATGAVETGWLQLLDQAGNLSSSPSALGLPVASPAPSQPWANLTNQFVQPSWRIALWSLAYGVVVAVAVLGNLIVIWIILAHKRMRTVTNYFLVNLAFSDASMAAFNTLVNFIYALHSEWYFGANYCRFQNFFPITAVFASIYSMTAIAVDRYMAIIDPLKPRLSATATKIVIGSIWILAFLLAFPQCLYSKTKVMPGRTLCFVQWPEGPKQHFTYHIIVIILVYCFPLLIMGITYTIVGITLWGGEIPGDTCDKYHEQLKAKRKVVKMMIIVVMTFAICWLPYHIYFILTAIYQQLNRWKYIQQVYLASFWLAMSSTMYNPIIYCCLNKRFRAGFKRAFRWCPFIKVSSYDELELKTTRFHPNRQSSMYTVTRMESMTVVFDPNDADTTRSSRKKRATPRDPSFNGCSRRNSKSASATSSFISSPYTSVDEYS", "test": "Receptor binding panel: Neurokinin NK3"}, "[11]": {"target": "T1, CRF1 (Homo sapiens, UniProt P34998)", "T1 sequence (P34998 24-415)": "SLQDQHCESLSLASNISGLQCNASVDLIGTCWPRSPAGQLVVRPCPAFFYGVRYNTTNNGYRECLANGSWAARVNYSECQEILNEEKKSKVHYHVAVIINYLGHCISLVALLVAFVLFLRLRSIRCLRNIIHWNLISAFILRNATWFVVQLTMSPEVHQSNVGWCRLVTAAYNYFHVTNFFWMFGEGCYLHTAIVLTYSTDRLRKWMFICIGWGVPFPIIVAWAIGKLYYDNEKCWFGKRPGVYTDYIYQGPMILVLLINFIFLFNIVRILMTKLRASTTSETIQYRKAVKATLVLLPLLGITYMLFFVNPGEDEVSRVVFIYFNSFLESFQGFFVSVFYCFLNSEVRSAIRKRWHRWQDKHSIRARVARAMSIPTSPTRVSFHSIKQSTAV", "test": "Receptor binding panel: CRF1"}, "[12]": {"tested_on": "Leukotriene B4", "test": "Receptor binding panel: Leukotriene B4"}, "[13]": {"tested_on": "K Channel KATP", "test": "Receptor binding panel: K Channel KATP"}, "[14]": {"tested_on": "GABA A (Agonist site)", "test": "Receptor binding panel: GABA A (Agonist site)"}, "[15]": {"target": "Histamine H2 (Homo sapiens, UniProt P25021)", "sequence (P25021 whole entry)": "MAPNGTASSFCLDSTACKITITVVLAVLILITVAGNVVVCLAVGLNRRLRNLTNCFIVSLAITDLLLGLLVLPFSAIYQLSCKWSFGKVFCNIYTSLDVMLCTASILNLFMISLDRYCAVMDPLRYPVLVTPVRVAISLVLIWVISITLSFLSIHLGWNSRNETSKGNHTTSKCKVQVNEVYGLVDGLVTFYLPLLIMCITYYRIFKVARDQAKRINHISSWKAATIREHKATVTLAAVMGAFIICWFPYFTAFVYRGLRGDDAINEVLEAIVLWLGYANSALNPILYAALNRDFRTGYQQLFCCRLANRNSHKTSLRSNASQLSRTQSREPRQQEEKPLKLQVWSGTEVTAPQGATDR", "test": "Receptor binding panel: Histamine H2"}, "[16]": {"tested_on": "Leukotriene D4", "test": "Receptor binding panel: Leukotriene D4"}, "[17]": {"target": "Serotonin 5HT3 (Homo sapiens, UniProt P46098)", "sequence (P46098 24-478)": "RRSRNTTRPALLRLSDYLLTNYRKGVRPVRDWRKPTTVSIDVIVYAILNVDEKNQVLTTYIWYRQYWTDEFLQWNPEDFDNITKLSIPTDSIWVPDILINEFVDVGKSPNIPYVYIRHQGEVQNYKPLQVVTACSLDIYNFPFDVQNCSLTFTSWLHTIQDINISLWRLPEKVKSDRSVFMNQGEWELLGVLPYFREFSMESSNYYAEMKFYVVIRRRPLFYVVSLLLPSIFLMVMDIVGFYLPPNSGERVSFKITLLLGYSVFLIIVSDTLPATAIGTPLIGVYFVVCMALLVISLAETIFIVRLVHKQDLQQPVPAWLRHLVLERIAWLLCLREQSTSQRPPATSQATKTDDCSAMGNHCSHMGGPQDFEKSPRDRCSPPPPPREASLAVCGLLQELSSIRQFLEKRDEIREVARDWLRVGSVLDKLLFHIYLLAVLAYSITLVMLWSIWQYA", "test": "Receptor binding panel: Serotonin 5HT3"}, "[18]": {"tested_on": "Nicotinic", "test": "Receptor binding panel: Nicotinic", "set-up": "species or system Human"}, "[19]": {"target": "Serotonin 5HT2A (Homo sapiens, UniProt P28223)", "sequence (P28223 whole entry)": "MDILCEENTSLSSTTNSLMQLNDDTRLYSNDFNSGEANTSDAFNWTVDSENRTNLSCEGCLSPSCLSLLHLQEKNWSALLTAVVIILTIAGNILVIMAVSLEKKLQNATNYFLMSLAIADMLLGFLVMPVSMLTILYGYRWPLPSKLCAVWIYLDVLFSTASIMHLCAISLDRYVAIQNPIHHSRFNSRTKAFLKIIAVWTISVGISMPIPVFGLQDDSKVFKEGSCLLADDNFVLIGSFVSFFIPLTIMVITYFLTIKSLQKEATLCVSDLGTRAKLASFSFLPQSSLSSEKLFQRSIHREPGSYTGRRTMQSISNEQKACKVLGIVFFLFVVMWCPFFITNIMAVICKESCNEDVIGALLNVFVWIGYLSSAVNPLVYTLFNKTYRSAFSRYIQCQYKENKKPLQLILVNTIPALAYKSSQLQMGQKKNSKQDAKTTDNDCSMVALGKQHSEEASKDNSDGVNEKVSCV", "test": "Receptor binding panel: Serotonin 5HT2A"}, "[20]": {"tested_on": "GABA A (BZ central)", "test": "Receptor binding panel: GABA A (BZ central)"}, "[21]": {"target": "α2A-Adrenergic (Homo sapiens, UniProt P08913)", "sequence (P08913 whole entry)": "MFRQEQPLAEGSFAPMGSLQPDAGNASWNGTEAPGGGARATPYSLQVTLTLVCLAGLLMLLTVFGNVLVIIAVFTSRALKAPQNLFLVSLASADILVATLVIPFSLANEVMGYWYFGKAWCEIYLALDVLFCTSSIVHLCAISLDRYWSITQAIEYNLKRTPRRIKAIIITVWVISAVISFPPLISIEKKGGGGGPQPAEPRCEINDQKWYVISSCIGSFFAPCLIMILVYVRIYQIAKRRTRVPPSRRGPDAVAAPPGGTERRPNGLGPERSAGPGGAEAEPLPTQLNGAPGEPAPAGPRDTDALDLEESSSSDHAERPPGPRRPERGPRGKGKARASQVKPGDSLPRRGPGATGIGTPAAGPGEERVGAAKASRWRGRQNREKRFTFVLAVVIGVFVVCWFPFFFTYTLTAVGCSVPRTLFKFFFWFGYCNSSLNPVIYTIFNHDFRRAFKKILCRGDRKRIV", "test": "Receptor binding panel: α2A-Adrenergic"}, "[22]": {"target": "α2C-Adrenergic (Homo sapiens, UniProt P18825)", "sequence (P18825 whole entry)": "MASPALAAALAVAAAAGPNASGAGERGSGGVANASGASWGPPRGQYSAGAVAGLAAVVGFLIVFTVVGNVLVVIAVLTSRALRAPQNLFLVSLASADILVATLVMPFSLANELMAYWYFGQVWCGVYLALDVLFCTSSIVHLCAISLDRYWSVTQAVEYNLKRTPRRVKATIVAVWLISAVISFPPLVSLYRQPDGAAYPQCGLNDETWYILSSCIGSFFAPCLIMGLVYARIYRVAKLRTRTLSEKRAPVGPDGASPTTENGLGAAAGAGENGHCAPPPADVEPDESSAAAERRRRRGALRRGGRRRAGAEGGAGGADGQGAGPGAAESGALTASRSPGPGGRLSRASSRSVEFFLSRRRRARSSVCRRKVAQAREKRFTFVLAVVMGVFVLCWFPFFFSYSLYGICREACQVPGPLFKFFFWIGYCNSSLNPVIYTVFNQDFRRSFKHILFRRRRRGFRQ", "test": "Receptor binding panel: α2C-Adrenergic"}, "[23]": {"tested_on": "Glutamate (AMPA)", "test": "Receptor binding panel: Glutamate (AMPA)"}, "[24]": {"tested_on": "Glutamate (Kainate)", "test": "Receptor binding panel: Glutamate (Kainate)"}, "[25]": {"target": "Opiate δ (Homo sapiens, UniProt P41143)", "sequence (P41143 whole entry)": "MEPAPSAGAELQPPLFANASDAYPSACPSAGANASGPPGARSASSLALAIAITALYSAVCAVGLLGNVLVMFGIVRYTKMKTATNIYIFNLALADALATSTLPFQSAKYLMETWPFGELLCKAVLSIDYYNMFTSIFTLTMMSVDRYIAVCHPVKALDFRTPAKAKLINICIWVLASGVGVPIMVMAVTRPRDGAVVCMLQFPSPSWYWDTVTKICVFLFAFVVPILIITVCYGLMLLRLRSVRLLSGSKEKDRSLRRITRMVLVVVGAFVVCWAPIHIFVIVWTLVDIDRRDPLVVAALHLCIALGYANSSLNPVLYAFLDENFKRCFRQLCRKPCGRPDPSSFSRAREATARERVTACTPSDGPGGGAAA", "test": "Receptor binding panel: Opiate δ"}, "[26]": {"tested_on": "Estrogen", "test": "Receptor binding panel: Estrogen"}, "[27]": {"tested_on": "Na channel site 2", "test": "Receptor binding panel: Na channel site 2"}, "[28]": {"target": "Histamine H3 (Homo sapiens, UniProt Q9Y5N1)", "sequence (Q9Y5N1 whole entry)": "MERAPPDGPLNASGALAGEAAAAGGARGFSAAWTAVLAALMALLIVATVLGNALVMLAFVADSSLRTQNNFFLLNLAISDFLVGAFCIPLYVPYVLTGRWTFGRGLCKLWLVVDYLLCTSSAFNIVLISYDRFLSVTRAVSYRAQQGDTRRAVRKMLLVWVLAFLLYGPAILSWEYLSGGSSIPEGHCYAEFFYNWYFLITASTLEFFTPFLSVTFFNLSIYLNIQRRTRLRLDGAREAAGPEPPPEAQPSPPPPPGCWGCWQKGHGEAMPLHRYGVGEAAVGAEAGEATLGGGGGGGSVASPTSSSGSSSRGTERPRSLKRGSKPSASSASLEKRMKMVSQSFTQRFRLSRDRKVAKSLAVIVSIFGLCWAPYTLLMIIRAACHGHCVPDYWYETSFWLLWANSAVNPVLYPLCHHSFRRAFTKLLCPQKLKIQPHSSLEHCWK", "test": "Receptor binding panel: Histamine H3"}}, "note": "*1 amine or outer side, *2 acyl side, *3 side chain or, on linkers, in order; H or OH if unused. Where a SMILES comes first, the peptide text is derived from it. Where no end group is shown, it is not given here. [ ]: non-standard residue; d: D form. NMeF = CN[C@@H](Cc1ccccc1)C(=O)O; Suc = O=C(CCC(=O)[*:2])[*:1]"}
{"compound": "COc1ccc2[nH]cc(CCNC(C)=O)c2c1", "note": "[Melatonin, reference compound]", "values": [{"measurement": "Inhibition (%)", "setting": "[1]", "result": 100.00, "unit": "%"}]}
{"compound": "Ic1ccccc1CN[C@@H]1C2CCN(CC2)[C@@H]1C(c1ccccc1)c1ccccc1", "note": "(racemic) [L-703,606, reference compound]", "values": [{"measurement": "Inhibition (%)", "setting": "[2]", "result": 94.45, "unit": "%"}]}
{"compound": "(+)-Butaclamol [reference compound]", "values": [{"measurement": "Inhibition (%)", "setting": "[3]", "result": 100.00, "unit": "%"}]}
{"compound": "CC(C)=CCN1CCC2(C)c3cc(O)ccc3CC1C2C", "note": "(single isomer, unassigned; (+)) [(+)-Pentazocine, reference compound]", "values": [{"measurement": "Inhibition (%)", "setting": "[4]", "result": 100.00, "unit": "%"}]}
{"compound": "(+)-MK-801 [reference compound]", "values": [{"measurement": "Inhibition (%)", "setting": "[5]", "result": 100.00, "unit": "%"}]}
{"compound": "O=C(CCCN1CCC(O)(c2ccc(Cl)cc2)CC1)c1ccc(F)cc1", "note": "[Haloperidol, reference compound]", "values": [{"measurement": "Inhibition (%)", "setting": "[6]", "result": 100.00, "unit": "%"}]}
{"compound": "N[C@@H](CCC(=O)O)C(=O)O", "note": "[L-Glutamic acid, reference compound]", "values": [{"measurement": "Inhibition (%)", "setting": "[7]", "result": 100.00, "unit": "%"}]}
{"compound": "CN(C)CCCN1c2ccccc2CCc2ccccc21", "note": "[Imipramine, reference compound]", "values": [{"measurement": "Inhibition (%)", "setting": "[8]", "result": 100.00, "unit": "%"}]}
{"compound": "O=C(O)/C(=C/c1c(C(=O)O)[nH]c2cc(Cl)cc(Cl)c12)c1ccccc1", "note": "[MDL105,519, reference compound]", "values": [{"measurement": "Inhibition (%)", "setting": "[9]", "result": 100.00, "unit": "%"}]}
{"compound": "CSCC[C@H](NC(=O)[C@H](CC(C)C)NC(=O)CNC(=O)[C@H](Cc1ccccc1)N(C)C(=O)[C@H](Cc1ccccc1)NC(=O)[C@H](CC(=O)O)NC(=O)CCC(=O)O)C(N)=O", "note": "[Senktide, reference compound] (Suc-DF[NMeF]GLM-NH2)", "values": [{"measurement": "Inhibition (%)", "setting": "[10]", "result": 98.43, "unit": "%"}]}
{"compound": "Urocortin human (DNPSLSIDLTFHLLRTLLELARTQSQRERAEQNRIIFDSV; ends and bridges not checked; UniProt P55089 83-122, looked up) [reference compound]", "values": [{"measurement": "Inhibition (%)", "setting": "[11]", "result": 100.00, "unit": "%"}]}
{"compound": "CCCCC/C=C\\C[C@@H](O)/C=C/C=C/C=C\\[C@@H](O)CCCC(=O)O", "note": "[Leukotriene B4, reference compound]", "values": [{"measurement": "Inhibition (%)", "setting": "[12]", "result": 98.89, "unit": "%"}]}
{"compound": "COc1ccc(Cl)cc1C(=O)NCCc1ccc(S(=O)(=O)NC(=O)NC2CCCCC2)cc1", "note": "[Glybenclamide, reference compound]", "values": [{"measurement": "Inhibition (%)", "setting": "[13]", "result": 100.00, "unit": "%"}]}
{"compound": "NCc1cc(=O)[nH]o1", "note": "[Muscimol, reference compound]", "values": [{"measurement": "Inhibition (%)", "setting": "[14]", "result": 97.63, "unit": "%"}]}
{"compound": "CN/C(=N/CCSCc1nc[nH]c1C)NC#N", "note": "[Cimetidine, reference compound]", "values": [{"measurement": "Inhibition (%)", "setting": "[15]", "result": 100.00, "unit": "%"}]}
{"compound": "CCCCC/C=C\\C\\C=C/C=C/C=C/[C@@H](SC[C@H](N)C(=O)NCC(=O)O)[C@@H](O)CCCC(=O)O", "note": "[Leukotriene D4, reference compound]", "values": [{"measurement": "Inhibition (%)", "setting": "[16]", "result": 100.00, "unit": "%"}]}
{"compound": "CN1[C@@H]2CC[C@H]1C[C@@H](OC(=O)c1c[nH]c3ccccc13)C2", "note": "[Tropisetron, reference compound]", "values": [{"measurement": "Inhibition (%)", "setting": "[17]", "result": 99.80, "unit": "%"}]}
{"compound": "Clc1ccc(C2CC3CCC2N3)cn1", "note": "(racemic) [(±)-Epibatidine, reference compound]", "values": [{"measurement": "Inhibition (%)", "setting": "[18]", "result": 98.46, "unit": "%"}]}
{"compound": "O=C(c1ccc(F)cc1)C1CCN(CCn2c(=O)[nH]c3ccccc3c2=O)CC1", "note": "[Ketanserin, reference compound]", "values": [{"measurement": "Inhibition (%)", "setting": "[19]", "result": 99.20, "unit": "%"}]}
{"compound": "CN1C(=O)CN=C(c2ccccc2)c2cc(Cl)ccc21", "note": "[Diazepam, reference compound]", "values": [{"measurement": "Inhibition (%)", "setting": "[20]", "result": 100.00, "unit": "%"}]}
{"compound": "COC(=O)[C@H]1[C@H]2C[C@H]3c4[nH]c5ccccc5c4CCN3C[C@H]2CC[C@@H]1O", "note": "[Rauwolscine, reference compound]", "values": [{"measurement": "Inhibition (%)", "setting": "[21]", "result": 100.00, "unit": "%"}, {"measurement": "Inhibition (%)", "setting": "[22]", "result": 100.00, "unit": "%"}]}
{"compound": "Cc1onc(O)c1C[C@H](N)C(=O)O", "note": "[(S)-AMPA, reference compound]", "values": [{"measurement": "Inhibition (%)", "setting": "[23]", "result": 100.00, "unit": "%"}]}
{"compound": "C=C(C)[C@H]1CN[C@H](C(=O)O)[C@H]1CC(=O)O", "note": "[Kainic acid, reference compound]", "values": [{"measurement": "Inhibition (%)", "setting": "[24]", "result": 100.00, "unit": "%"}]}
{"compound": "Oc1ccc2c3c1O[C@H]1c4oc5ccccc5c4C[C@@]4(O)[C@@H](C2)N(CC2CC2)CC[C@]314", "note": "[Naltriben, reference compound]", "values": [{"measurement": "Inhibition (%)", "setting": "[25]", "result": 98.32, "unit": "%"}]}
{"compound": "C[C@]12CC[C@@H]3c4ccc(O)cc4CC[C@H]3[C@@H]1CC[C@@H]2O", "note": "[β-Estradiol, reference compound]", "values": [{"measurement": "Inhibition (%)", "setting": "[26]", "result": 100.00, "unit": "%"}]}
{"compound": "CCCCOc1cc(C(=O)NCCN(CC)CC)c2ccccc2n1", "note": "[Dibucaine, reference compound]", "values": [{"measurement": "Inhibition (%)", "setting": "[27]", "result": 97.37, "unit": "%"}]}
{"compound": "C[C@@H](N)Cc1c[nH]cn1", "note": "[(R)(−)-α-Methyl histamine, reference compound]", "values": [{"measurement": "Inhibition (%)", "setting": "[28]", "result": 98.17, "unit": "%"}]}
